Values quoted from earlier work as cited in patent US8642581B1, “Compositions and methods for the production of S-adenosylmethionine within the body” (priority 2000, dated 2014).

Columns and labels:
[1] = test system: beta-adrenergic binding sites; details: rats, chronic administration
[2] = 35° C. (95° F.)
[3] = test system: brain membrane; details: rats, chronic administration
[4] = test system: Depressive symptoms; details: 195 patients, 400 mg SAMe parenterally for 15 days

C[S+](CC[C@H](N)C(=O)O)C[C@H]1O[C@@H](n2cnc3c(N)ncnc32)[C@H](O)[C@@H]1O (some centres unmarked) [SAMe, S-adenosylmethionine]
age-related decrease in beta-adrenergic binding sites [1]: prevents
time SAMe remains stable [2]: 8 to 10 h
age-related decrease of brain membrane fluidity [3]: prevents
serious adverse events [4]: no serious adverse events were reported
Depressive symptoms ([4]; after 7 and 15 days): remitted after both 7 and 15 days
